Results: patent publication US10335374B2, “Tablet composition for anti-tuberculosis antibiotics” (priority 2014, dated 2019)
pIC50: −log10 of the molar value. ≈ marks a conversion by molar mass, not a printed value. Where two headings read alike, the source gives them in different places.

Legend:
[1] = system: Mycobacterium Tuberculosis Infected Macrophages; settings: intracellular, published study; cited from earlier work
[2] = system: M. tuberculosis H37Rv; test: MIC, IC50 and IC90 under aerobic conditions (growth after five days); type: cell-based, Mycobacterium tuberculosis
[3] = system: M. tuberculosis H37Rv; test: Minimum bactericidal concentration (kill kinetics, 21 days); type: cell-based; settings: for MBC: Mycobacterium tuberculosis, H37RV
[4] = system: Vero African green monkey kidney cell line; test: Cytotoxicity towards eukaryotic cells; type: cell-based; settings: Chlorocebus sabaeus, 48 h, two days
[5] = system: Murine J774 macrophages infected with a luminescent strain of H37Rv; type: cell-based, M. tuberculosis; settings: intracellular
[6] = system: M. tuberculosis; test: IC50, IC90 and MIC of amikacin one and two component complexes; type: cell-based; settings: Mycobacterium tuberculosis
[7] = system: H37Rv strain; test: MIC of amikacin complexes, H37Rv strain; type: cell-based, M. tuberculosis; settings: Mycobacterium tuberculosis, second set
[8] = clinical trials, compared to placebo groups; cited from earlier work
[9] = system: active TB; test: MIC of capreomycin one and two component systems against active TB; type: cell-based, Mycobacterium tuberculosis
Procedure: The first antibiotic complex investigated with one and two component systems consisted of the second-line TB drug capreomycin which was bound to the copper(II) cation and the aggregate forming water soluble unbranched polymer PEG-3350. […] MIC values are defined as the lowest concentration of an antimicrobial (i.e. antifungal, antibiotic or bacteriostatic) drug that will inhibit the visible growth of a microorganism after incubation and is a common unit used to describe the level of efficacy of an antibiotic against a bacterium.

[10] = rats (oral); cited from earlier work
[11] = in vivo; cited from earlier work
[12] = Mycobacterium tuberculosis, H37RV, aerobic conditions, glucose series
[13] = Mycobacterium tuberculosis, H37RV, aerobic conditions, isoniazid-sucrose series, equal molar ratios
[14] = Mycobacterium tuberculosis, H37RV, aerobic conditions, rifampicin complexes, second set

COc1c(N2CC[C@@H](C(C)(C)N)C2)c(F)cc2c(=O)c3c(=O)[nH]sc3n(C3CC3)c12 [ACH-702]
drop of activity, log(kill) units [1]: ~1.3 log(kill) units

NNC(=O)c1ccncc1 [Isoniazid (INH), isoniazid]
pIC50 [2, 12]: 6.33 | IC90 [2, 12]: 0.62 µM | MIC ([2]; Mycobacterium tuberculosis, H37RV, aerobic conditions, glucose series, read-out: MIC): 0.64 µM (≈ 0.0878 µg/mL) | pIC50 [2, 13]: 6.20 | IC90 [2, 13]: 1 µM | MIC ([2]; Mycobacterium tuberculosis, H37RV, aerobic conditions, isoniazid-sucrose series, equal molar ratios, read-out: MIC): 0.97 µM | MBC ([3]; isoniazid-sucrose series): 0.3 µM (≈ 0.0411 µg/mL) | pIC50 [4]: < 4.00 | average log(kill) value ([5]; average of table eight): 2.5 | Log Kill ([5]; concentration 1.2 μM): 2.5 | Log Kill ([5]; concentration 12 μM): 2.5

Cn1nnc(-c2ccc(-c3ccc(N4C[C@H](CO)OC4=O)cc3F)cn2)n1 [Tedizolid]
drop of activity, log(kill) units [1]: approximately 1.4 log(kill) units

NCC[C@H](O)C(=O)N[C@@H]1C[C@H](N)[C@@H](O[C@H]2O[C@H](CN)[C@@H](O)[C@H](O)[C@H]2O)[C@H](O)[C@H]1O[C@H]1O[C@H](CO)[C@@H](O)[C@H](N)[C@H]1O [amikacin]
pIC50 [6]: 6.67 | IC90 [6]: 0.328 µM | MIC [6]: 0.39 µM | MIC [7]: 0.256 µM

COc1nc2ccc(Br)cc2cc1[C@@H](c1ccccc1)[C@@](O)(CCN(C)C)c1cccc2ccccc12 [bedaquiline, Bedaquiline]
deaths in recipient groups [8]: 11.4%

[Cl][Cu][Cl] [copper(II) chloride]
MIC [9]: 0.39 µM | LD50 [10]: 140 mg/kg

CCO [ethyl alcohol]
LD50 [11]: 14,000 mg/kg

CO[C@H]1/C=C/O[C@@]2(C)Oc3c(C)c(O)c4c(O)c(c(/C=N/N5CCN(C)CC5)c(O)c4c3C2=O)NC(=O)/C(C)=C\C=C\[C@H](C)[C@H](O)[C@@H](C)[C@@H](O)[C@@H](C)[C@H](OC(C)=O)[C@@H]1C [rifampicin]
MIC ([2]; Mycobacterium tuberculosis, H37RV, H37Rv strain, rifampicin complexes, first set, read-out: MIC): 0.006 µM (≈ 0.00494 µg/mL) | pIC50 [2, 14]: 8.52 | IC90 [2, 14]: 0.003 µM | MIC ([2]; Mycobacterium tuberculosis, H37RV, aerobic conditions, rifampicin complexes, second set, read-out: MIC): 0.004 µM (≈ 0.00329 µg/mL) | MBC ([3]; rifampicin complexes): 0.06 µM (≈ 0.0494 µg/mL) | MBC/MIC ([3]; rifampicin complexes): 15

[Cl-].[Na+] [sodium chloride]
LD50 [11]: 3,000 mg/kg

COc1cc(C=O)ccc1O [vanillin]
LD50 [11]: 1,580 mg/kg

capreomycin
MIC [9]: 3.13 µM

copper (II) chloride dihydrate
MIC ([2]; H37Rv strain, rifampicin complexes, first set): 105.7 µM

copper gluconate
LD50 [10]: 1710 mg/kg

vitamin A
LD50 [11]: 2,000 mg/kg
